This is an account of results in patent US8637099B2, “Use of Vitex agnus castus extracts for preparing a medicament” (Max Zeller Sohne AG, priority 2007, dated 2014).

The test system of the experiment is Fisher rats. Put plainly: Tele-Stereo-EEG: field potentials (spectral power) in freely moving rats. The experiment is classed as in vivo, rat. As to conditions: 4 mg i.p.

Consider `OC1(c2ccc(Cl)cc2)CCN(Cc2c[nH]c3ccccc23)CC1` [L-741,626], for which the “changes in the EEG power spectrum” value was “strong decrease of spectral power mainly within the alpha2 waves”.
